From patent US12637461B2, “Compounds for the activation of AMPK” (PFIZER INC., priority 2022, dated 2026) come the findings set out here.

For the assay, the target named is T1, human AMPK α2β2γ3 (Homo sapiens, UniProt O43741+P54646+Q9UGI9).
T1 construct: expressed in transfected cells; host or cells: HEK293AD cells, MaxCyte bulk electroporation
The assay is described as follows: Primary cellular assay: γ3 associated phospho-Thr172 AMPK detection (custom pAMPK Surefire AlphaLISA) in α2β2γ3 bulk transiently transfected HEK293 cells. The format is cell-based. The note with it: activation of human AMPK α2β2γ3 (γ3 pThr172 AMPK signal) in transiently transfected HEK293 cells, 20 minutes compound incubation; for Emax: 20 min, read-out: Assay GMean Asy. Max (%); for Emax / Assay GMean Asy. Max (%): geometric mean of the asymptotic max; for EC50: geometric mean EC50, read-out: Assay GMean EC50. In short, it runs like this: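 Transiently co-transfected (α2/β2/γ3 plasmids, electroporation) HEK293AD cells, plated 2 days in low-glucose DMEM+10% FBS, treated 20 min with compounds (11-point half-log dilutions). Lysates read by modified AlphaLISA capturing γ3 with pThr172 antibody detection. % effect relative to 30 μM HPE and DMSO; EC50 and Emax from curve fit.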

T1 sequence (P54646 whole entry): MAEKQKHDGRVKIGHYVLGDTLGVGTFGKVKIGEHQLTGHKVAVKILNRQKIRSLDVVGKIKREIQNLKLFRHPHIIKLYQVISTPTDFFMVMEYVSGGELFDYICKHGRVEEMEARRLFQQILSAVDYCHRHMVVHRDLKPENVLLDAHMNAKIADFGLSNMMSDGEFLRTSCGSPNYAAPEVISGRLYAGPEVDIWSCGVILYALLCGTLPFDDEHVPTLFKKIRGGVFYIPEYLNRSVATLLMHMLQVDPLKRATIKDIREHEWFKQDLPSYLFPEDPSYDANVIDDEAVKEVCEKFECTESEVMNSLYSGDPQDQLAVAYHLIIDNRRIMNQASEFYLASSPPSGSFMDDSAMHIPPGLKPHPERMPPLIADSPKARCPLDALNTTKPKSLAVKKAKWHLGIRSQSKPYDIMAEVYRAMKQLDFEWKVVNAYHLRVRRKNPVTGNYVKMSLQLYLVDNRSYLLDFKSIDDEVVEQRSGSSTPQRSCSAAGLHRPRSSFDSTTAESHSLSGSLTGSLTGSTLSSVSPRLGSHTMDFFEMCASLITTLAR
T1 sequence (O43741 whole entry): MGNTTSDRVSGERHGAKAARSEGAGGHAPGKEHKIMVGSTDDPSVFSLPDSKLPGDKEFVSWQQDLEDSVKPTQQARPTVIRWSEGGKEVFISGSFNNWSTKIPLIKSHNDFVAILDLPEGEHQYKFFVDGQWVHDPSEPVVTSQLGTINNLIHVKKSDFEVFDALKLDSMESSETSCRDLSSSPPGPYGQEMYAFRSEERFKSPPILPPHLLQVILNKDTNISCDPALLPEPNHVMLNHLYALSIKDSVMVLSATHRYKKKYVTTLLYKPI
T1 sequence (Q9UGI9 whole entry): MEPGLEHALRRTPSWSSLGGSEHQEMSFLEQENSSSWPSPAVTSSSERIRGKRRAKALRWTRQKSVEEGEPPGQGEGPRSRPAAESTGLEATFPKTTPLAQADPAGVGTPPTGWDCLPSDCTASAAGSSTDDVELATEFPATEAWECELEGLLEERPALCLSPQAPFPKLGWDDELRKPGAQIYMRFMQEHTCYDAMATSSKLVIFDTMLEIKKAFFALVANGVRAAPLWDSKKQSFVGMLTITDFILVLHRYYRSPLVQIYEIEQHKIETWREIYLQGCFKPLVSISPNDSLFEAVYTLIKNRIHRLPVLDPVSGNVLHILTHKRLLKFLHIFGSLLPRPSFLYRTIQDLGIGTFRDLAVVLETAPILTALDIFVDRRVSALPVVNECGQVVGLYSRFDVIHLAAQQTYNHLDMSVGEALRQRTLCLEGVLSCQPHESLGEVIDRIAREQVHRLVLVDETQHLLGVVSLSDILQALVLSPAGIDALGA

For `Cn1cc(F)c(N2C[C@](C)(c3cccc(Cl)c3F)c3c(cnc(NC4CN(C(=O)C5(O)CC5)C4)c3F)C2=O)n1` [compound 62, (4R)-4-(3-chloro-2-fluorophenyl)-5-fluoro-2-(4-fluoro-1-methyl-1H-pyrazol-3-yl)-6-{[1-(1-hydroxycyclopropane-1-carbonyl)azetidin-3-yl]amino}-4-methyl-3,4-dihydro-2,7-naphthyridin-1(2H)-one], the Emax worked out at 138% and the concentration giving a half-maximal response (EC50) worked out at 98.1 nM.

`Cn1cc(F)c(N2C[C@](C)(c3cccc(Cl)c3F)c3c(cnc(NC4CN(CC(N)=O)C4)c3F)C2=O)n1` [compound 68, 2-(3-{[(5R)-5-(3-chloro-2-fluorophenyl)-4-fluoro-7-(4-fluoro-1-methyl-1H-pyrazol-3-yl)-5-methyl-8-oxo-5,6,7,8-tetrahydro-2,7-naphthyridin-3-yl]amino}azetidin-1-yl)acetamide]: the Emax came to 29.6% and the EC50 was found to be 247 nM.

Regarding `Cn1cc(F)c(N2CC(C)(c3cccc(Cl)c3F)c3c(ccc(NC4CN(C5CCCNC5=O)C4)c3F)C2=O)n1` (stereo not drawn) [Example 35, 4-(3-Chloro-2-fluorophenyl)-5-fluoro-2-(4-fluoro-1-methyl-1H-pyrazol-3-yl)-4-methyl-6-{[1-(2-oxopiperidin-3-γ1)azetidin-3-yl]amino}-3,4-dihydroisoquinolin-1(2H)-one], the concentration for a half-maximal effect (EC50) was determined as 27.2 nM and the “Assay GMean Asy. Max (%)” value was 119%.

Consider `C[C@]1(c2cccc(Cl)c2F)CN(c2ncccc2F)C(=O)c2cnc(NC3CN(C(=O)N4CCN5CC(F)(F)C[C@@H]5C4)C3)c(F)c21` [compound 100, (4R)-4-(3-chloro-2-fluorophenyl)-6-({1-[(8aR)-7,7-difluorohexahydropyrrolo[1,2-a]pyrazine-2(1H)-carbonyl]azetidin-3-yl}amino)-5-fluoro-2-(3-fluoropyridin-2-yl)-4-methyl-3,4-dihydro-2,7-naphthyridin-1(2H)-one], for which the Emax stood at 22.8% and the concentration giving a half-maximal response (EC50) was found to be 11.6 nM.

Turning to `Cn1cnc(N2C[C@](C)(c3cccc(Cl)c3F)c3c(cnc(NC4CN(C(=O)C5CC5C(F)(F)F)C4)c3F)C2=O)c1` (single isomer, unassigned) [compound 97], the EC50 turned out to be 150 nM and the “Assay GMean Asy. Max (%)” value turned out to be 25.8%.

For the molecule `CC1(c2cccc(Cl)c2F)CN(c2ncccc2F)C(=O)c2cnc(NC3CN(C(=O)[C@](C)(O)C(F)(F)F)C3)nc21` (single isomer, unassigned) [compound 111], the Emax is 159% and the EC50 was determined as 342 nM.

On to `Cn1cc(F)c(N2C[C@](C)(c3cccc(Cl)c3F)c3c(cnc(NC4CN(C(=O)[C@@H]5C[C@H]5F)C4)c3F)C2=O)n1` [compound 78, (4R)-4-(3-chloro-2-fluorophenyl)-5-fluoro-6-({1-[(1S,2R)-2-fluorocyclopropane-1-carbonyl]azetidin-3-yl}amino)-2-(4-fluoro-1-methyl-1H-pyrazol-3-yl)-4-methyl-3,4-dihydro-2,7-naphthyridin-1(2H)-one], for which the Emax turned out to be 80.7% and the EC50 amounted to 62.3 nM.

For `CNC(=O)CN1CC(Nc2ncc3c(c2F)[C@@](C)(c2cccc(Cl)c2F)CN(c2nn(C)cc2F)C3=O)C1` [compound 67, 2-(3-{[(5R)-5-(3-chloro-2-fluorophenyl)-4-fluoro-7-(4-fluoro-1-methyl-1H-pyrazol-3-yl)-5-methyl-8-oxo-5,6,7,8-tetrahydro-2,7-naphthyridin-3-yl]amino}azetidin-1-yl)-N-methylacetamide], the Emax was 40.1% and the EC50 worked out at 76.8 nM.

As to `CC1(c2cccc(Cl)c2F)CN(c2ncccc2F)C(=O)c2cnc(NC3CN(C(=O)CO)C3)nc21` (single isomer, unassigned) [Example 26, 8-(3-Chloro-2-fluorophenyl)-6-(3-fluoropyridin-2-yl)-2-{[1-(hydroxyacetyl)azetidin-3-yl]amino}-8-methyl-7,8-dihydropyrido[4,3-d]pyrimidin-5(6H)-one], the Emax is 47.6% and the EC50 is 183 nM.

On to `CN1CCC(F)(C(=O)N2CC[C@@H](Nc3ncc4c(c3F)C(C)(c3cccc(Cl)c3F)CN(c3ncccc3F)C4=O)C2)CC1` (single isomer, unassigned) [compound 109], for which the Emax was determined as 81.7% and the EC50 amounted to 76.2 nM.

As to `C[C@]1(c2cccc(Cl)c2F)CN(c2ccc(CO)cn2)C(=O)c2cnc(NC3CN(C(=O)c4cccnn4)C3)c(F)c21` [Example 4, (4R)-4-(3-Chloro-2-fluorophenyl)-5-fluoro-2-[5-(hydroxymethyl)pyridin-2-yl]-4-methyl-6-{[1-(pyridazine-3-carbonyl)azetidin-3-yl]amino}-3,4-dihydro-2,7-naphthyridin-1(2H)-one], the Emax turned out to be 96.3% and the EC50 was found to be 66.3 nM.

For `C[C@]1(c2cccc(Cl)c2F)CN(c2ccc(CO)cn2)C(=O)c2cnc(NC3CN(C(=O)c4ncccn4)C3)c(F)c21` [compound 59, (4R)-4-(3-chloro-2-fluorophenyl)-5-fluoro-2-[5-(hydroxymethyl)pyridin-2-yl]-4-methyl-6-{[1-(pyrimidine-2-carbonyl)azetidin-3-yl]amino}-3,4-dihydro-2,7-naphthyridin-1(2H)-one], the Emax stood at 62.4% and the EC50 came out at 157 nM.

On to `CN1CCC(N2CC(Nc3ncc4c(c3F)[C@@](C)(c3cccc(Cl)c3F)CN(c3nn(C)cc3F)C4=O)C2)C1=O` (single isomer, unassigned) [compound 70], for which the EC50 stood at 47.6 nM and the “Assay GMean Asy. Max (%)” value is 80.4%.

On to `C[C@H](O)c1ccc(N2C[C@](C)(c3cccc(Cl)c3F)c3c(cnc(NC4CN(C(=O)[C@@H]5C[C@@H]5F)C4)c3F)C2=O)nc1` [compound 49, (4R)-4-(3-chloro-2-fluorophenyl)-5-fluoro-6-({1-[(1S,2S)-2-fluorocyclopropane-1-carbonyl]azetidin-3-yl}amino)-2-{5-[(1S)-1-hydroxyethyl]pyridin-2-yl}-4-methyl-3,4-dihydro-2,7-naphthyridin-1(2H)-one], for which the Emax was 77.3% and the concentration giving a half-maximal response (EC50) was 63.9 nM.

For `Cn1cc(F)c(N2C[C@](C)(c3cccc(Cl)c3F)c3c(cnc(NC4CN(C(=O)CN5CCCC5)C4)c3F)C2=O)n1` [Example 12, (4R)-4-(3-Chloro-2-fluorophenyl)-5-fluoro-2-(4-fluoro-1-methyl-1H-pyrazol-3-yl)-4-methyl-6-({1-[(pyrrolidin-1-γ1)acetyl]azetidin-3-yl}amino)-3,4-dihydro-2,7-naphthyridin-1(2H)-one], the Emax was found to be 77.9% and the EC50 turned out to be 43.5 nM.

`Cn1cc(F)c(N2C[C@](C)(c3cccc(Cl)c3F)c3c(cnc(NC4CN(C(=O)C(O)CC(F)(F)F)C4)c3F)C2=O)n1` (single isomer, unassigned) [compound 45]: the EC50 was determined as 66.4 nM and the “Assay GMean Asy. Max (%)” value worked out at 100%.

In the case of `Cn1cc(F)c(N2C[C@](C)(c3cccc(Cl)c3F)c3c(cnc(NC4CN(C(=O)C5CCC(F)(F)CN5)C4)c3F)C2=O)n1` (single isomer, unassigned) [compound 96], the EC50 came out at 60.5 nM and the “Assay GMean Asy. Max (%)” value was determined as 85.5%.

As to `Cn1cc(F)c(N2C[C@](C)(c3cccc(Cl)c3F)c3c(cnc(NC4CN(C(=O)C(O)C5CC5)C4)c3F)C2=O)n1` (single isomer, unassigned) [compound 43], the EC50 is 172 nM and the “Assay GMean Asy. Max (%)” value was found to be 77.4%.
